# Entries after “also recorded” stand apart in the source; their conditions may differ.
# Experiments:
# [1] = tested on: transplanted kidney; experiment: Porcine kidney auto-transplantation model (20 h cold storage, reperfusion); assay type: in vivo, German Landrace pigs; details: pig
# Method: We used the porcine kidney auto-transplantation model with the modified PET formulation of Bryostatin-1 in thirty-two female German Landrace pigs weighing 20 to 40 kg. Briefly, animals had surgery for graft retrieval followed by a standard graft cold storage time (CST) of 20 h. During CST, kidneys were preserved with histidine-tryptophan-ketoglutarate (HTK)-solution either supplemented with 100 nM Bryostatin-1 or an equivalent volume of placebo (PET formulation). Donor animals then had surgery again for renal auto-transplantation and the graft was transplanted orthotopically. Thus, the contralateral kidney was removed to measure specifically function of the transplanted kidney. Time of reperfusion was 8 h and sample collection included cortical renal biopsies, tissue block samples at the end of the study and blood as well as urine analyses.
# [2] = cited from earlier work
# [3] = tested on: neutrophil migration across HUVEC; experiment: Neutrophil transendothelial migration (TEM) restoration studies with PKC inhibitors in HUVEC; assay type: cell-based, human; details: 100 nM Bryostatin-1, 100 nM LTB4, 3 h
# Method: HUVEC were pretreated with G0-6983, a PKC inhibitor with dose dependent specificities for classical vs. novel PKC isoforms for 30 minutes prior to addition of Bryostatin-1 (100 nM) to block neutrophil migration. […] Neutrophil migration towards 100 nM LTB4 was initiated by adding LTB4 to the lower well.
# Neutrophil Transendothelial Migration (TEM) Restoration Studies: HUVECs were pretreated with Go-6983 (1, 10, 100 nM), or Go-6976 (1, 10,100 nM) for 30 minutes, then spiked with 100 nM Bryostatin-1 for 1 hour. HUVECs previously nucleofected with PKC-δ, -ε, or control siRNA were just treated in Bryostatin-1 for 1 hour. HUVECs were washed three times and placed in a new plate containing either 500 IL 100 nM LTB4, or HBSS alone for control. Neutrophils were allowed to migrate for 3 h at 37° C. Migration was stopped by removing the inserts and migration was measured using the MPO assay.
# Myeloperoxidase Assay: Neutrophil migration was measured using myeloperoxidase (MPO) analysis. Cell culture inserts were first removed, and plates were spun at 1,500 RPM for 5 min. The supernatant was removed, and MPO activity was measured using TMB/peroxide as chromogen. The reaction was stopped with sulfuric acid and absorbance was read at 450 nm using a microplate reader. All experiments were performed n=6. Data was expressed as “% neutrophil migration”, which allowed cumulative statistical analysis to be done and account for unpreventable batch-to-batch variations.
# [4] = tested on: PKC-δ siRNA nucleofected HUVEC; experiment: LTB4 mediated neutrophil migration across PKC-δ siRNA nucleofected HUVEC; assay type: cell-based, human; details: 100 nM, 1 h; PKC-δ knockdown
# Text: Because studies in FIG. 8 could not discriminate between PKC-δ and […] isoforms mediating the effect of Bryostatin-1, we knocked down individual isoforms using siRNA technology. In order to verify that we could knock down particular isoforms of PKC, specifically PKC-8 and PKC-ε isoforms in HUVEC, siRNA which selectively bind to and eliminate human PKC-8 and PKC-ε mRNAs were nucleofected into HUVEC prior to migration studies. […] HUVEC cells treated using these approaches were then subjected to chemotaxis studies with Bryostatin-1 to elucidate the mechanism of Bryostatin-1 mediated inhibition of LTB4 induced PMN migration.
# Neutrophil Transendothelial Migration (TEM) Restoration Studies: HUVECs were pretreated with Go-6983 (1, 10, 100 nM), or Go-6976 (1, 10,100 nM) for 30 minutes, then spiked with 100 nM Bryostatin-1 for 1 hour. […] Migration was stopped by removing the inserts and migration was measured using the MPO assay.
# Myeloperoxidase Assay: Neutrophil migration was measured using myeloperoxidase (MPO) analysis. […] The supernatant was removed, and MPO activity was measured using TMB/peroxide as chromogen. The reaction was stopped with sulfuric acid and absorbance was read at 450 nm using a microplate reader. […] Data was expressed as “% neutrophil migration”, which allowed cumulative statistical analysis to be done and account for unpreventable batch-to-batch variations. […]
# [5] = HTK-solution with 100 nM Bryostatin-1 during 20 h cold storage vs placebo
smiles,measurement,setting,value
CCC/C=C/C=C/C(=O)O[C@H]1/C(=C/C(=O)OC)C[C@H]2C[C@H]([C@@H](C)O)OC(=O)C[C@H](O)C[C@@H]3C[C@H](OC(C)=O)C(C)(C)[C@](O)(C[C@@H]4C/C(=C/C(=O)OC)C[C@H](/C=C/C(C)(C)[C@]1(O)O2)O4)O3 [Bryostatin-1],serum/plasma and urinary inflammatory biomarkers,[1]; 100 nM Bryostatin-1 in HTK-solution,not altered
same,kidney histology scores at 6 hours,"[1]; 100 nM Bryostatin-1 in HTK-solution, 6 hours",significantly improved
same,kidney ultrastructural damage scores,[1]; [5],significantly reduced
same,neutrophils entering the re-perfused kidney,[1]; [5],significantly prevented
same,major side effects associated with use,"[2]; Phase II trials, combination with other drugs, cancers","myalgias, nausea, and vomiting"
same,cardiovascular disturbances or edema,[2]; clinical use,no cardiovascular disturbances or evidence of edema have been observed
same,adverse effects at dosing ranges higher than 100 ng/ml plasma level,[2]; healthy subjects and cancer patients,no adverse effects
same,"effect on LTB4 induced neutrophil migration, HUVEC",[3],reversed; also recorded: significantly suppressed LTB4 induced migration
same,effect on LTB4 mediated neutrophil migration in PKC-δ siRNA nucleofected HUVEC,[4],restored the normal level of neutrophil trans endothelial migration; also recorded: will not inhibit LTB4 mediated neutrophil migration

# From patent US20230139328A1, “DOSAGE FORMS FOR IMPROVING ORGAN TRANSPLANTATION, GRAFT VERSUS HOST DISEASE AND STEM CELLS TRANSPLANTS” (Aphios Corporation, priority 2020, published 2023)
